Source: ChEMBL document CHEMBL1144513, “Synthesis and SAR study of novel 7-(pyridinium-3-yl)-carbonyl imidazo[5,1-b]thiazol-2-yl carbapenems” (2007)
Values after ≈ are worked out from the molar mass of the structure shown.

How the values were obtained:
Assay type in all cases: functional
Streptococcus pneumoniae = assay: Antibacterial activity against penicillin-resistant Streptococcus pneumoniae KK133 by agar dilution method
Staphylococcus aureus [1] = assay: Antibacterial activity against methicillin-resistant Staphylococcus aureus M126 by agar dilution method
Klebsiella pneumoniae = assay: Antibacterial activity against Klebsiella pneumoniae GN69 by agar dilution method
Haemophilus influenzae = assay: Antibacterial activity against beta-lactamase-negative ampicillin-resistant Haemophilus influenzae 870 by agar dilution method
Moraxella catarrhalis = assay: Antibacterial activity against Moraxella catarrhalis W-0500 by agar dilution method
Staphylococcus aureus [2] = assay: Antibacterial activity against Staphylococcus aureus 209P JC1 by agar dilution method
Escherichia coli = assay: Antibacterial activity against Escherichia coli NIHJ JC2 by agar dilution method
Staphylococcus aureus [3] = assay: Antibacterial activity against carbapenem and methicillin-resistant Staphylococcus aureus M126HR by agar dilution method

Compound | MIC (Streptococcus pneumoniae) [µg/mL] | MIC (Staphylococcus aureus [1]) [µg/mL] | MIC (Klebsiella pneumoniae) [µg/mL] | MIC (Haemophilus influenzae) [µg/mL] | MIC (Moraxella catarrhalis) [µg/mL] | MIC (Staphylococcus aureus [2]) [µg/mL] | MIC (Escherichia coli) [µg/mL] | MIC (Staphylococcus aureus [3]) [µg/mL]
C[C@@H](O)[C@H]1C(=O)N2C(C(=O)O)=C(c3cn4cnc(C(=O)C5CCNCC5)c4s3)[C@H](C)[C@H]12 | 0.063 (≈ 0.142 µM) | 1 (≈ 2.25 µM) | 0.125 (≈ 0.281 µM) | 0.063 (≈ 0.142 µM) | 0.031 (≈ 0.0697 µM) | 0.008 (≈ 0.018 µM) | 0.063 (≈ 0.142 µM) | 4 (≈ 9 µM)
CSc1c2sc(C3=C(C(=O)[O-])N4C(=O)[C@H]([C@@H](C)O)[C@H]4[C@H]3C)cn2c[n+]1CC(N)=O | 0.031 (≈ 0.071 µM) | 1 (≈ 2.29 µM) | 0.031 (≈ 0.071 µM) | 0.5 (≈ 1.15 µM) | 0.031 (≈ 0.071 µM) | 0.008 (≈ 0.0183 µM) | 0.016 (≈ 0.0367 µM) | 4 (≈ 9.16 µM)
C[C@@H](O)[C@H]1C(=O)N2C(C(=O)[O-])=C(c3cn4c(Cl)nc(C(=O)c5ccc[n+](CC(N)=O)c5)c4s3)[C@H](C)[C@H]12 | 0.031 (≈ 0.0585 µM) | 0.5 (≈ 0.943 µM) | 2 (≈ 3.77 µM) | 0.063 (≈ 0.119 µM) | 0.016 (≈ 0.0302 µM) | 0.008 (≈ 0.0151 µM) | 1 (≈ 1.89 µM) | 2 (≈ 3.77 µM)
C[C@@H](O)[C@H]1C(=O)N2C(C(=O)[O-])=C(c3cn4c(C5CC5)nc(C(=O)c5ccc[n+](CC(N)=O)c5)c4s3)[C@H](C)[C@H]12 | 0.031 (≈ 0.0579 µM) | 0.5 (≈ 0.934 µM) | 4 (≈ 7.47 µM) | 0.031 (≈ 0.0579 µM) | 0.016 (≈ 0.0299 µM) | 0.016 (≈ 0.0299 µM) | 4 (≈ 7.47 µM) | 2 (≈ 3.73 µM)
C[C@@H](O)[C@H]1C(=O)N2C(C(=O)O)=C(c3cn4cnc(C(=O)[C@@H]5CCCN5)c4s3)[C@H](C)[C@H]12 | 0.063 (≈ 0.146 µM) | 1 (≈ 2.32 µM) | 0.125 (≈ 0.29 µM) | 0.125 (≈ 0.29 µM) | 0.031 (≈ 0.072 µM) | ≤ 0.008 | 0.125 (≈ 0.29 µM) | 4 (≈ 9.29 µM)
C[C@@H](O)[C@H]1C(=O)N2C(C(=O)[O-])=C(c3cn4cnc(C(=O)c5ccc[n+](Cc6ccccc6)c5)c4s3)[C@H](C)[C@H]12 | 0.016 (≈ 0.0303 µM) | 0.5 (≈ 0.946 µM) | 1 (≈ 1.89 µM) | 0.063 (≈ 0.119 µM) | 0.063 (≈ 0.119 µM) | ≤ 0.008 | 0.5 (≈ 0.946 µM) | 4 (≈ 7.57 µM)
C[C@@H](O)[C@H]1C(=O)N2C(C(=O)[O-])=C(c3cn4cnc(C(=O)c5ccc[n+](CC(=O)O)c5)c4s3)[C@H](C)[C@H]12 | 0.063 (≈ 0.127 µM) | 2 (≈ 4.03 µM) | 0.063 (≈ 0.127 µM) | 0.063 (≈ 0.127 µM) | 0.031 (≈ 0.0624 µM) | 0.031 (≈ 0.0624 µM) | 0.031 (≈ 0.0624 µM) | 8 (≈ 16.1 µM)
C[C@@H](O)[C@H]1C(=O)N2C(C(=O)[O-])=C(c3cn4c(N5CCOCC5)nc(C(=O)c5ccc[n+](CC(N)=O)c5)c4s3)[C@H](C)[C@H]12 | 0.063 (≈ 0.109 µM) | 2 (≈ 3.44 µM) | 16 (≈ 27.6 µM) | 0.125 (≈ 0.215 µM) | 0.063 (≈ 0.109 µM) | 0.031 (≈ 0.0534 µM) | 16 (≈ 27.6 µM) | 8 (≈ 13.8 µM)
C[C@@H](O)[C@H]1C(=O)N2C(C(=O)[O-])=C(c3cn4cnc(C(=O)c5ccc[n+](CCN(C)C)c5)c4s3)[C@H](C)[C@H]12 | 0.031 (≈ 0.0608 µM) | 1 (≈ 1.96 µM) | 0.25 (≈ 0.491 µM) | 0.063 (≈ 0.124 µM) | 0.031 (≈ 0.0608 µM) | ≤ 0.008 | 0.125 (≈ 0.245 µM) | 4 (≈ 7.85 µM)
C[C@@H](O)[C@H]1C(=O)N2C(C(=O)O)=C(c3cn4cnc(C(=O)c5cn(C)c6ccccc56)c4s3)[C@H](C)[C@H]12 | 0.125 (≈ 0.255 µM) | 0.031 (≈ 0.0632 µM) | 8 (≈ 16.3 µM) | 0.125 (≈ 0.255 µM) | 0.016 (≈ 0.0326 µM) | 0.008 (≈ 0.0163 µM) | 4 (≈ 8.15 µM) | 8 (≈ 16.3 µM)
CCOC(=O)C[n+]1cccc(C(=O)c2ncn3cc(C4=C(C(=O)[O-])N5C(=O)[C@H]([C@@H](C)O)[C@H]5[C@H]4C)sc23)c1 | 0.063 (≈ 0.12 µM) | 2 (≈ 3.81 µM) | 0.063 (≈ 0.12 µM) | 0.063 (≈ 0.12 µM) | 0.031 (≈ 0.0591 µM) | 0.016 (≈ 0.0305 µM) | 0.031 (≈ 0.0591 µM) | 8 (≈ 15.3 µM)
C[C@@H](O)[C@H]1C(=O)N2C(C(=O)O)=C(c3cn4cnc(C(=O)c5cccnc5)c4s3)[C@H](C)[C@H]12 | 0.031 (≈ 0.0707 µM) | 1 (≈ 2.28 µM) | 2 (≈ 4.56 µM) | 0.031 (≈ 0.0707 µM) | 0.016 (≈ 0.0365 µM) | ≤ 0.008 | 1 (≈ 2.28 µM) | 4 (≈ 9.12 µM)
C[C@@H](O)[C@H]1C(=O)N2C(C(=O)O)=C(c3cn4cnc(C(=O)c5cncs5)c4s3)[C@H](C)[C@H]12 | 0.031 (≈ 0.0697 µM) | 0.031 (≈ 0.0697 µM) | 2 (≈ 4.5 µM) | 0.063 (≈ 0.142 µM) | 0.016 (≈ 0.036 µM) | ≤ 0.008 | 1 (≈ 2.25 µM) | 4 (≈ 9 µM)
CC(=O)C[n+]1cccc(C(=O)c2ncn3cc(C4=C(C(=O)[O-])N5C(=O)[C@H]([C@@H](C)O)[C@H]5[C@H]4C)sc23)c1 | 0.063 (≈ 0.127 µM) | 1 (≈ 2.02 µM) | 0.25 (≈ 0.506 µM) | 0.063 (≈ 0.127 µM) | 0.031 (≈ 0.0627 µM) | 0.016 (≈ 0.0324 µM) | 0.125 (≈ 0.253 µM) | 4 (≈ 8.09 µM)
